Assay [1] addresses T1, Delta-type opioid receptor (Homo sapiens, UniProt P41143). Briefly: DOR antagonists, SAR follow-up, image-based (AID 2357). The class given is functional.
The target of assay [2] is T2, Kappa-type opioid receptor (Homo sapiens, UniProt P41145). Description: SAR analysis of small molecule agonists of the kappa opioid receptor via a luminescent beta-arrestin assay. [Related pubchem assays (depositor defined):AID1777, AID1786, AID1966, AID2133, AID2136, AID2348, AID2352, AID2357, AID2359, AID2370, AID2420, AID2478, AID2491, AID2492, AID2493, AID2497, AID2498, AID2500, AID449737, AID488822, AID488842]. Type of assay: functional.
T2 sequence (P41145 whole entry): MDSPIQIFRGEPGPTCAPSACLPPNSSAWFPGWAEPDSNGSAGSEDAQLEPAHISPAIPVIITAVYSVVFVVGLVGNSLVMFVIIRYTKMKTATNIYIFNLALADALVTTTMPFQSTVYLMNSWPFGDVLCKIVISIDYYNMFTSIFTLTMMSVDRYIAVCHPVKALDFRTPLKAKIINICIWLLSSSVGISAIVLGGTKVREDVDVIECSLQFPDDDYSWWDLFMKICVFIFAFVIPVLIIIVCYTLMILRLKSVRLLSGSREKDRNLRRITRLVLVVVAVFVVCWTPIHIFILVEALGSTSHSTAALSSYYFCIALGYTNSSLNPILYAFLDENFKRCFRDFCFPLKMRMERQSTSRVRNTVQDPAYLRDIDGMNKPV

The target of assay [3] is T3, Mu-type opioid receptor (Homo sapiens, UniProt P35372). Description: MOR agonists by imaging, SAR follow-up, image-based (AID 2352). The class given is functional.
T3 sequence (P35372 whole entry): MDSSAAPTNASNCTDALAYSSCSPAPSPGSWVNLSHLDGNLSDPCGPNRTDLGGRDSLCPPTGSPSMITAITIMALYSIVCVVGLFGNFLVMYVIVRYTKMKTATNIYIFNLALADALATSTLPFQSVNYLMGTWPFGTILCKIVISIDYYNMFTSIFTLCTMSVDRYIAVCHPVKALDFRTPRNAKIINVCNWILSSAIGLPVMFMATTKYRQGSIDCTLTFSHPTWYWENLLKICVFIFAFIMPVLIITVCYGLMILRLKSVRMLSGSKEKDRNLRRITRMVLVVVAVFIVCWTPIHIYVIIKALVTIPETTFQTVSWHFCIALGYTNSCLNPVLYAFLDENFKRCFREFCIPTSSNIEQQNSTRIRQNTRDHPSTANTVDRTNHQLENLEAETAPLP
In assay [4] the target is T3, Mu-type opioid receptor. Briefly: MOR antagonists, SAR follow-up, image-based (AID 2420).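 Further: compounds added before stimulation of receptor with agonist DAMGO.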 The class given is functional.
Assay [5] concerns the target T1, Delta-type opioid receptor. Briefly: DOR agonists, SAR follow-up, image-based (AID 2370). Type of assay: functional.
Assay [6] addresses T2, Kappa-type opioid receptor. Briefly: KOR agonist analogs, imaging readout, SAR follow-up, image-based (AID 2359). The class given is functional.
In assay [7] the target is T2, Kappa-type opioid receptor. Description: KOR antagonists by imaging, SAR follow-up, image-based (AID 2348). The class given is functional.
Assay [8] in a line: NIH-3T3 fibroblast cytotoxicity, dose response, cytotoxicity control, cell-based, fluorescence, Alamar Blue, secondary assay (AID 2327).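 Further: NIH-3T3 mouse fibroblasts cultured with fluconazole at 8 µg/mL.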 The class given is functional. A general note: The colour change of resazurin is a common sign of viable cells or microbes.
In assay [9] the test system is INS1. Description: beta cell apoptosis inhibitors, cytokine rescue, dose response, luminescence, retest (AID 449756).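 Further: cell death triggered by IL-1 beta plus TNF-alpha plus IFN-gamma mixture; protective hits raise ATP signal compared with cytokine alone wells.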 The class given is functional, cell-based. As to conditions: Rattus norvegicus.
The nature of assay [10]: C. albicans growth with fluconazole, confirmation, fluorescence, retest (AID 2467). Type of assay: functional, cell-based.
Assay [11] concerns the target T4, Zinc finger protein mex-5 (Caenorhabditis elegans, UniProt Q9XUB2).
T4 sequence (Q9XUB2 whole entry): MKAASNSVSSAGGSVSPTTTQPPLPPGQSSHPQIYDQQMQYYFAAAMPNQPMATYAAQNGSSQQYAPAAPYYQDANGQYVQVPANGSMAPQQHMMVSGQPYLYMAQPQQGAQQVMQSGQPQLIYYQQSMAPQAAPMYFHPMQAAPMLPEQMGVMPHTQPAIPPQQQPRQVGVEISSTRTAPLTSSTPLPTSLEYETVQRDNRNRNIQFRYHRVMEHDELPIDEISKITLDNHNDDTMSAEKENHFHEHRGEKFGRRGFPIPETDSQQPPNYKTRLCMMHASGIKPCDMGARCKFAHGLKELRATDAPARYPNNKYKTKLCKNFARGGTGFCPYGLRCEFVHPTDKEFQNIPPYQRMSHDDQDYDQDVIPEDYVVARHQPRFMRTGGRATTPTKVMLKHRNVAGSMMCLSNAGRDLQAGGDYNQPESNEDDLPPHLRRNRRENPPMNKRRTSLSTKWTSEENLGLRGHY
Briefly: MEX-5/TCR-2 RNA interaction inhibitors, dose response, biochemical, C. elegans, fluorescence polarization (AID 1960). (In general: Polarisation of emitted light reports the rotation of a fluorescent probe.)

Assay [12] can be described thus: Luminescence Cell-Based Dose Response HTS to Identify Inhibitors of 5'UTR Stem-Loop Driven Prion Protein mRNA Translation in H4 Neuroglioblastoma Cells. [Related pubchem assays: 1827 (Project Summary), 1813 (Primary HTS)]. Type of assay: functional.
A short description of assay [13]: inhibitors of firefly luciferase expression or activity, dose response, H4 neuroglioma cells, luminescence (AID 1990). Type of assay: functional, cell-based.
The nature of assay [14]: inhibitors of SNCA 5'UTR-driven reporter translation, confirmation, H4 neuroglioma cells, luminescence (AID 1988). The class given is functional, cell-based.
The target in assay [15] is T5, RNA-binding protein pos-1 (Caenorhabditis elegans, UniProt G5EF15).
T5 sequence (G5EF15 whole entry): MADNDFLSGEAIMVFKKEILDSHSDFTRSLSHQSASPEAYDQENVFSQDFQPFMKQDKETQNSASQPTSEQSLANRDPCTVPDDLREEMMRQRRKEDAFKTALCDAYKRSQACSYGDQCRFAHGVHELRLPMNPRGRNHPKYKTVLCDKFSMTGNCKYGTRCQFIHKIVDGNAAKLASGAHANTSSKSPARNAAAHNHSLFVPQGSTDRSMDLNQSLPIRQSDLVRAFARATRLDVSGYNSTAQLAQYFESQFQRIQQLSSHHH
Briefly: inhibitors of POS-1/mex-3 RNA binding, dose response, biochemical, fluorescence polarization (AID 1964).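 Further: purified POS-1 fused to maltose binding protein made in E. coli; potency of compounds blocking POS-1 binding to fluorescent RNA.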

Assay [16] is described as follows: Counterscreen for AddAB inhibitors: absorbance-based bacterial cell-based high throughput dose response assay for inhibitors of bacterial viability. [Related pubchem assays (depositor defined):AID435030, AID449728, AID449731, AID488942, AID488955, AID488956]. The class given is functional. In general terms: Counterscreens check selectivity or assay interference.

Assay [17] has as its target Exodeoxyribonuclease V (Escherichia coli (strain K12), UniProt P04993+P07648+P08394). Description: E. coli RecBCD inhibitors, dose response, counter-screen for AddAB inhibitor project, absorbance, V66 E. coli, mutant T4 phage (AID 492957). The class given is functional, cell-based, Escherichia coli str. K-12 substr. MG1655.
Assay [18] addresses T6, Heat shock factor protein 1 (Mus musculus, UniProt P38532).
T6 sequence (P38532 whole entry): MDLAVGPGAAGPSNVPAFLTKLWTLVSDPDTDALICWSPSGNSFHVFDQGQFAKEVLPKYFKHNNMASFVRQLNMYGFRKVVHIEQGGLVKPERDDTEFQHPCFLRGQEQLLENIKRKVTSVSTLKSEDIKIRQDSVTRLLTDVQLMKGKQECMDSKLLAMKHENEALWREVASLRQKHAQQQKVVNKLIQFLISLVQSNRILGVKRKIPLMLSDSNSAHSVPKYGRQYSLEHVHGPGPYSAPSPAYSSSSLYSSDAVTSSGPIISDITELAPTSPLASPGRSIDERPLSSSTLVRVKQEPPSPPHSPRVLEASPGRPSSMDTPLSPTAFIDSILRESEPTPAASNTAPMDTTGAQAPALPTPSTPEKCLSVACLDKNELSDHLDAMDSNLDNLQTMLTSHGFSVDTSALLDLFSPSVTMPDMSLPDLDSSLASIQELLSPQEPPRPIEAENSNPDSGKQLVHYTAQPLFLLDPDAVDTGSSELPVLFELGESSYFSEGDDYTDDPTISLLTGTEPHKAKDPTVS
Briefly: inhibition of MG132-induced HSE-luciferase signal, confirmation, cell-based, NIH3T3, luminescence, dose retest (AID 2382).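 Further: NIH3T3 fibroblasts with HSF1-driven luciferase reporter stressed by proteasome inhibitor MG132; luminescence from HSF1-driven luciferase expression after 8 hours of MG132 stress.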 Type of assay: functional.

Each structure is given as a SMILES string. Calls of active or inactive are those of the source.

Among the data in ChEMBL document CHEMBL1201862, “PubChem BioAssay data set” (2004) are IC50, EC50 and AC50 values, retold here.

Usually IC50 stands for the midpoint of a concentration-inhibition curve. The term EC50 denotes the concentration needed to bring the measured effect to its halfway point. The AC50 is the concentration at which the activity in the assay is half-maximal.

T1 sequence (P41143 whole entry): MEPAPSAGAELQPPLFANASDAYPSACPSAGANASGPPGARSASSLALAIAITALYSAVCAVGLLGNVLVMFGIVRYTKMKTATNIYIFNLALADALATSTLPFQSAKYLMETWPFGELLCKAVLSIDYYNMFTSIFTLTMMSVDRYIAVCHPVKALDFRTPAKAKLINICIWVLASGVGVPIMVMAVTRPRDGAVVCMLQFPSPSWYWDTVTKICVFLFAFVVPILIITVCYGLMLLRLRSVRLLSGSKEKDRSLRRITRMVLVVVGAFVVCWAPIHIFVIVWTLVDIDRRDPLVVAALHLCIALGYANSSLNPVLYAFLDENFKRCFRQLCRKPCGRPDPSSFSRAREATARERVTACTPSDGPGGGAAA
Exodeoxyribonuclease V, sequence (P04993 whole entry): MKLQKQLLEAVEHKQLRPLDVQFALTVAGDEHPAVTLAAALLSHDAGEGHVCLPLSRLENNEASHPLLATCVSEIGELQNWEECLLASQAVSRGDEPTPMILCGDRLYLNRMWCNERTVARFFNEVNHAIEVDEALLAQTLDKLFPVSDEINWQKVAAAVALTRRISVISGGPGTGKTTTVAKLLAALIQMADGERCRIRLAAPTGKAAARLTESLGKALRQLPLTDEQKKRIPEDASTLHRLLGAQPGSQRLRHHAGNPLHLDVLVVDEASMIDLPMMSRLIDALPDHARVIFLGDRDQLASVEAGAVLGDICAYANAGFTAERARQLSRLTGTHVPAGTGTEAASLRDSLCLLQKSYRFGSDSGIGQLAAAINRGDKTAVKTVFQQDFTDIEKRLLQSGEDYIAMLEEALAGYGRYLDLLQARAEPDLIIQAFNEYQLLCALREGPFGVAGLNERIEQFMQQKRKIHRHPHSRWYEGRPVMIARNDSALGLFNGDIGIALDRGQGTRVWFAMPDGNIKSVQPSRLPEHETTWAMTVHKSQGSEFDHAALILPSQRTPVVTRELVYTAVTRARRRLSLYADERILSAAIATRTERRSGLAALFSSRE
Exodeoxyribonuclease V, sequence (P07648 whole entry): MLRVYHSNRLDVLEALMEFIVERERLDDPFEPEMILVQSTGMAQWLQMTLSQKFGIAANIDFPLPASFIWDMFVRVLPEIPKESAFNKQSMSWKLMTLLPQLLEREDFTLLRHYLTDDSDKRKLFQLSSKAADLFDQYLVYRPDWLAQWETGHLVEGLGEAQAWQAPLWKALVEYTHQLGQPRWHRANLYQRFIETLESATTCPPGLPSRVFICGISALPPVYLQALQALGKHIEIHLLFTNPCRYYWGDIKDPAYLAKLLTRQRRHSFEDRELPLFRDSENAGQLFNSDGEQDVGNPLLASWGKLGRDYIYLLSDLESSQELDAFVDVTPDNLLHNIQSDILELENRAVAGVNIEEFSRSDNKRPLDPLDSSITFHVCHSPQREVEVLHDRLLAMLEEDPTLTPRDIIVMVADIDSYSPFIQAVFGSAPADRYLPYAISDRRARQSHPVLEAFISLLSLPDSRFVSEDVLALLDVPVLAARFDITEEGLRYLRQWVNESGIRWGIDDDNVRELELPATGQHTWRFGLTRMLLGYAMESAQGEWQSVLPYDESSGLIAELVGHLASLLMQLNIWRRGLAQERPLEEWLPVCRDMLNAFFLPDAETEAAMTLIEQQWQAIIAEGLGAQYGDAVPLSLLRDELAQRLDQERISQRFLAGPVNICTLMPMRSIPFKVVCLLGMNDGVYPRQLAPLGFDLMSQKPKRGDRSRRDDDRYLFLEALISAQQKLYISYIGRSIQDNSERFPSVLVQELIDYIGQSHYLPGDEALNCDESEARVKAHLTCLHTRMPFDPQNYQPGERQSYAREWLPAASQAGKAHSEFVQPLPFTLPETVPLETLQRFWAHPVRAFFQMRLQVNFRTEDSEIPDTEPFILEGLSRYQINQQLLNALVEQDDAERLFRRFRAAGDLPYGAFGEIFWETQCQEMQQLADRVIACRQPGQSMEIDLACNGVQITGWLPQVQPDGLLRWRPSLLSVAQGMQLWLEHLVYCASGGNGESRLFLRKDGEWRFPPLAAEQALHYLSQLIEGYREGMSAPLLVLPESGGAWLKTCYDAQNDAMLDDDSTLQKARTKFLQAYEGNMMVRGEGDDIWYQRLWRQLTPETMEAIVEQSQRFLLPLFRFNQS
Exodeoxyribonuclease V, sequence (P08394 whole entry): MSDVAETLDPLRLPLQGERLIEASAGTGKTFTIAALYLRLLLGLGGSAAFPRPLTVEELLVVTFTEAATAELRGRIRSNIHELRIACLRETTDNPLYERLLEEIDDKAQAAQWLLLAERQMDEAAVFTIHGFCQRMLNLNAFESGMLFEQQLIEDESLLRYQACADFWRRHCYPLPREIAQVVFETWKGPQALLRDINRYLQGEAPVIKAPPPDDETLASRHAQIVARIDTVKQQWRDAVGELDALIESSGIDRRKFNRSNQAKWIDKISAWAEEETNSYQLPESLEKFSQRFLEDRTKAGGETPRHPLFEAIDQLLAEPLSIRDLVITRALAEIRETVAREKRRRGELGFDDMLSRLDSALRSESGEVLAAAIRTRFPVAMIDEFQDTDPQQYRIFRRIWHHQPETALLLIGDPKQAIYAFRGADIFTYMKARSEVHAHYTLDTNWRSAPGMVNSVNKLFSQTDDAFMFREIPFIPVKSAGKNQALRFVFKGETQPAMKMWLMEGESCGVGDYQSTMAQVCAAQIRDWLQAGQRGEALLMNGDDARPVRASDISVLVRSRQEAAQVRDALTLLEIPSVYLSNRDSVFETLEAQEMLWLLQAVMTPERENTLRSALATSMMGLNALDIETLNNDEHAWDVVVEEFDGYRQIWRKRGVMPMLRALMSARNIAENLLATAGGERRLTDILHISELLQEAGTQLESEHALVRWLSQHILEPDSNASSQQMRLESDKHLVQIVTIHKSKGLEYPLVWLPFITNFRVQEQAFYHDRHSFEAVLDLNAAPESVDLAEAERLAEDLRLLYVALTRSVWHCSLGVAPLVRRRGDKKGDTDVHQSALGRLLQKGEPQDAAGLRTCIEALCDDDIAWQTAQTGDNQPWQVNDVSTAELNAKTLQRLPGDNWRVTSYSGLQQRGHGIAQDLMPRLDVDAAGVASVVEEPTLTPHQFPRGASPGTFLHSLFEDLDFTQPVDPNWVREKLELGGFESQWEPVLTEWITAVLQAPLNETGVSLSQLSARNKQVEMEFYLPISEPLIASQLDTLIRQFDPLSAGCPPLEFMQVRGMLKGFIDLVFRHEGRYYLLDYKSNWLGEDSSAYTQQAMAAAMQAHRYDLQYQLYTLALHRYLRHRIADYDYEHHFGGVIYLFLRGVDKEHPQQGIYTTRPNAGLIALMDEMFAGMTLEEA

In the case of `O=C(CSc1nnc(-c2ccccn2)n1Cc1ccco1)c1ccc(Cl)cc1`, the IC50 in assay [1], in [4] and in assay [7] was > 32 µM (inactive) throughout. Also, the EC50 in assay [2] was > 10 µM (inactive); in [3], > 32 µM (inactive); in [5] it was > 32 µM (inactive); in assay [6], 7.66 µM (active).

On to `CCCNC(=O)c1ccc2c(O)c(O)c(-c3cccc(Br)c3)nc2c1`, for which the EC50 in assay [8] was 15.6 µM (active); in assay [10], 2.09 µM (active); in [11], 2.73 µM (active); in assay [12], 4.83 µM (active); in [13] it was 3.04 µM (active); in [14] it was 3.4 µM (active). The EC50 in assay [15] was 1.6 µM (active); in assay [18], > 195 µM (not active). For the same compound, the AC50 in assay [9] was 5.4 µM (active). In addition, the IC50 in assay [16] and in assay [17] was > 119 µM (inactive) in each case.
